Measurements from patent US12516016B2, “GPX4 inhibitors, pharmaceutical compositions thereof, and their use for treating GPX4-mediated diseases” (EUBULUS BIOTHERAPEUTICS (HONG KONG) LIMITED, priority 2020, dated 2026).
pEC50: −log10 of the molar value.

System: hepatocellular carcinoma cell line Hub-7
Assay: Cell proliferation assay (CELL-TITER GLO cell viability)
Format: cell-based
Conditions: 24 h, Hub-7 cells, 24 h incubation, read-out: Inhibition of Cell Proliferation EC50
Procedure: The activity of a test compound was determined in a cell proliferation assay using the hepatocellular carcinoma cell line […]. Cells (4,000 cells per well) were seeded in a 96-well tissue culture plate. After incubated overnight, a test compound was added at predetermined concentrations, starting with 10 μM and followed by 3-fold serial dilution. After the cells were incubated for 24 h, cell viability was determined using a CELL-TITER GLO® assay. The CELL-TITER GLO® reagent (50 μL) was added to each well and the luminescence was measured by a multimode microplate reader after a brief period of shaking. EC50 values were determined for the test compound. The results are summarized in Table 1, wherein A represents a value no greater than 100 nM, B represents a value greater than 100 nM but no greater than 500 nM, C represents a value greater than 500 nM but no greater than 2 μM, D represents a value greater than 2 μM but no greater than 10 μM; and E represents a value greater than 10 μM.

pEC50	Compound
≥ 7.00	C#CC(=O)N(c1cccc(Cl)c1)C(C(=O)NCc1ccccc1)c1ccc(F)cc1 (stereo not drawn) [A87, N-(2-(Benzylamino)-1-(4-fluorophenyl)-2-oxoethyl)-N-(3-chlorophenyl)-propiolamide]
≥ 7.00	C#CC(=O)N(c1ccc2scnc2c1)C(C(=O)NCc1ccccc1)c1ccccc1 (stereo not drawn) [A88, N-(Benzo[d]thiazol-5-yl)-N-(2-(benzylamino)-2-oxo-1-phenylethyl)-propiolamide]
≥ 7.00	C#CC(=O)N(c1cccc2c1CCC2=O)C(C(=O)NCc1ccccc1)c1ccccc1 (stereo not drawn) [A89, N-(2-(Benzylamino)-2-oxo-1-phenylethyl)-N-(1-oxo-2,3-dihydro-1H-inden-4-yl)propiolamide]
≥ 7.00	C#CC(=O)N(c1cccc(Cl)c1)C(C(=O)NCc1ccccc1)c1ccccc1F (stereo not drawn) [A90, N-(2-(Benzylamino)-1-(2-fluorophenyl)-2-oxoethyl)-N-(3-chlorophenyl)-propiolamide]
≥ 7.00	C#CC(=O)N(c1cc(Cl)ccc1I)C(C(=O)NCc1ccccc1)c1ccccc1 (stereo not drawn) [A91, N-(2-(Benzylamino)-2-oxo-1-phenylethyl)-N-(5-chloro-2-iodophenyl)-propiolamide]
6.30 to 7.00	C#CC(=O)N(c1cccc(S(C)(=O)=O)c1)C(C(=O)NCc1ccccc1)c1ccccc1 (stereo not drawn) [A92, N-(2-(Benzylamino)-2-oxo-1-phenylethyl)-N-(3-(methylsulfonyl)-phenyl)-propiolamide]
≥ 7.00	C#CC(=O)N(c1ccc(OC)c(Cl)c1)C(C(=O)NCc1ccccc1)c1ccccc1 (stereo not drawn) [A93, N-(2-(Benzylamino)-2-oxo-1-phenylethyl)-N-(3-chloro-4-methoxyphenyl)-propiolamide]
≥ 7.00	C#CC(=O)N(c1ccc2nsnc2c1)C(C(=O)NCc1ccccc1)c1ccccc1 (stereo not drawn) [A94, N-(Benzo[c][1,2,5]thiadiazol-5-yl)-N-(2-(benzylamino)-2-oxo-1-phenylethyl)-propiolamide]
6.30 to 7.00	C#CC(=O)N(c1cccc(Cl)c1)C(C(=O)NCc1ccccc1)c1cccc(CCO)c1 (stereo not drawn) [A95, N-(2-(Benzylamino)-1-(3-(2-hydroxyethyl)phenyl)-2-oxoethyl)-N-(3-chloro-phenyl)propiolamide]
≥ 7.00	C#CC(=O)N(c1ccc2c(c1)OCO2)C(C(=O)NCc1ccccc1)c1ccccc1 (stereo not drawn) [A96, N-(Benzo[d][1,3]dioxol-5-yl)-N-(2-(benzylamino)-2-oxo-1-phenylethyl)-propiolamide]
6.30 to 7.00	C#CC(=O)N(c1cccc2c1OCO2)C(C(=O)NCc1ccccc1)c1ccccc1 (stereo not drawn) [A97, N-(Benzo[d][1,3]dioxol-4-yl)-N-(2-(benzylamino)-2-oxo-1-phenylethyl)-propiolamide]
6.30 to 7.00	C#CC(=O)N(c1ccc2ncsc2c1)C(C(=O)NCc1ccccc1)c1ccccc1 (stereo not drawn) [A98, N-(Benzo[d]thiazol-6-yl)-N-(2-(benzylamino)-2-oxo-1-phenylethyl)-propiolamide]
≥ 7.00	C#CC(=O)N(c1ccc2c(c1)OC(F)(F)O2)C(C(=O)NCc1ccccc1)c1ccccc1 (stereo not drawn) [A99, N-(2-(Benzylamino)-2-oxo-1-phenylethyl)-N-(2,2-difluorobenzo[d][1,3]dioxol-5-yl)propiolamide]
≥ 7.00	C#CC(=O)N(c1cccc(C#N)c1)C(C(=O)NCc1ccccc1)c1ccccc1 (stereo not drawn) [A100, N-(2-(Benzylamino)-2-oxo-1-phenylethyl)-N-(3-cyanophenyl)propiolamide]
≥ 7.00	C#CC(=O)N(c1cccc(Cl)c1)C1(C(=O)NCc2ccccc2)CCCCC1 [A101, N-Benzyl-1-(N-(3-chlorophenyl)propiolamido)cyclohexanecarboxamide]
5.00 to 5.70	C#CC(=O)N(c1ccn(C)c(=O)c1)C(C(=O)NCc1ccccc1)c1ccccc1 (stereo not drawn) [A102, N-(2-(Benzylamino)-2-oxo-1-phenylethyl)-N-(1-methyl-2-oxo-1,2-dihydropyridin-4-yl)propiolamide]
≥ 7.00	C#CC(=O)N(c1cccc(Cl)c1)C1(C(=O)NCc2ccccc2)CCC(F)(F)CC1 [A103, N-Benzyl-1-(N-(3-chlorophenyl)propiolamido)-4,4-difluorocyclohexane-carboxamide]
≥ 7.00	C#CC(=O)N(c1ccc2cnn(C)c2c1)C(C(=O)NCc1ccccc1)c1ccccc1 (stereo not drawn) [A104, N-(2-(Benzylamino)-2-oxo-1-phenylethyl)-N-(1-methyl-1H-indazol-6-yl)-propiolamide]
6.30 to 7.00	C#CC(=O)N(c1ccc2nncn2c1)C(C(=O)NCc1ccccc1)c1ccccc1 (stereo not drawn) [A105, N-([1,2,4]Triazolo[4,3-a]pyridin-6-yl)-N-(2-(benzylamino)-2-oxo-1-phenylethyl)-propiolamide]
6.30 to 7.00	C#CC(=O)N(c1cccc2nonc12)C(C(=O)NCc1ccccc1)c1ccccc1 (stereo not drawn) [A106, N-(Benzo[c][1,2,5]oxadiazol-4-yl)-N-(2-(benzylamino)-2-oxo-1-phenylethyl)-propiolamide]

pEC50	Compound
≥ 7.00	C#CC(=O)N(c1ccc2c(cnn2C)c1)C(C(=O)NCc1ccccc1)c1ccccc1 (stereo not drawn) [A107, N-(2-(Benzylamino)-2-oxo-1-phenylethyl)-N-(1-methyl-1H-indazol-5-yl)-propiolamide]
≥ 7.00	C#CC(=O)N(c1ccc(Cl)c(Cl)c1)C1(C(=O)NCc2ccccc2)CCOCC1 [A108, N-Benzyl-4-(N-(3,4-dichlorophenyl)propiolamido)tetrahydro-2H-pyran-4-carboxamide]
6.30 to 7.00	C#CC(=O)N(c1ccc(Cl)c(Cl)c1)C1(C(=O)NCc2ccccc2)CCCCC1 [A109, N-Benzyl-1-(N-(3,4-dichlorophenyl)propiolamido)cyclohexanecarboxamide]
6.30 to 7.00	C#CC(=O)N(c1cccc(Cl)c1)[C@]1(C(=O)NCc2ccccc2)CC[C@H](O)CC1 [A110, (1S,4S)—N-Benzyl-1-(N-(3-chlorophenyl)propiolamido)-4-hydroxycyclohexane-carboxamide]
≥ 7.00	C#CC(=O)N(c1cccc(Cl)c1)C(C(=O)NCc1ccc(C#N)cc1)c1ccccc1 (stereo not drawn) [A114, N-(3-chlorophenyl)-N-(2-((4-cyanobenzyl)amino)-2-oxo-1-phenylethyl)propiolamide]
≥ 7.00	C#CC(=O)N(c1cccc(Cl)c1)C(C(=O)NCc1ccc(F)cc1)c1ccccc1 (stereo not drawn) [A115, N-(3-Chlorophenyl)-N-(2-((4-fluorobenzyl)amino)-2-oxo-1-phenylethyl)-propiolamide]
6.30 to 7.00	C#CC(=O)N(c1cccc(Cl)c1)C(C(=O)NCc1ccccc1F)c1ccccc1 (stereo not drawn) [A116, N-(3-Chlorophenyl)-N-(2-((2-fluorobenzyl)amino)-2-oxo-1-phenylethyl)-propiolamide]
< 5.00	CC#CC(=O)N(c1cccc(Cl)c1)C(C(=O)NCc1ccccc1)c1ccccc1 (stereo not drawn) [A117, N-(2-(Benzylamino)-2-oxo-1-phenylethyl)-N-(3-chlorophenyl)but-2-ynamide]
≥ 7.00	C#CC(=O)N(c1ccc(Cl)cc1)C(C(=O)NC(C)(C)C)c1cccc(N)c1 (stereo not drawn) [A119]
≥ 7.00	C#CC(=O)N(c1cccc(C(=O)OC)c1)C(C(=O)NCc1ccccc1)c1cccc(N)c1 (stereo not drawn) [A122]
≥ 7.00	C#CC(=O)N(c1cccc(Cl)c1F)C(C(=O)NCc1ccccc1)c1ccc(N)cc1 (stereo not drawn) [A123]
5.70 to 6.30	C#CC(=O)N(c1cccc(Cl)c1)C(C(=O)NCc1ccccc1)c1ccncc1 (stereo not drawn) [A124]
< 5.00	CC#CC(=O)N(c1ccc2c(cnn2C)c1)C1(C(=O)NCc2ccccc2)CCOCC1 [A125, N-Benzyl-4-(N-(1-methyl-1H-indazol-5-yl)but-2-ynamido)tetrahydro-2H-pyran-4-carboxamide]
5.00 to 5.70	CC#CC(=O)N(c1ccc2c(cnn2C)c1)C1(C(=O)NCc2ccccc2)CCCOC1 (stereo not drawn) [A126, N-Benzyl-3-(N-(1-methyl-1H-indazol-5-yl)but-2-ynamido)tetrahydro-2H-pyran-3-carboxamide]
< 5.00	CC#CC(=O)N(c1ccc2c(cnn2C)c1)C1(C(=O)NCc2ccccc2)CCCC(C(=O)OC)C1 (stereo not drawn) [A127, Methyl3-(benzylcarbamoyl)-3-(N-(1-methyl-1H-indazol-5-yl)but-2-ynamido)-cyclohexane-1-carboxylate]
< 5.00	O=C(C#CCO)N(c1cccc(Cl)c1)C1(C(=O)NCc2ccccc2)CCOCC1 [A129, N-Benzyl-4-(N-(3-chlorophenyl)-4-hydroxybut-2-ynamido)tetrahydro-2H-pyran-4-carboxamide]
< 5.00	O=C(C#CCO)N(c1cc(Cl)ccc1Cl)C1(C(=O)NCc2ccccc2)CCOCC1 [A130, N-Benzyl-4-(N-(2,5-dichlorophenyl)-4-hydroxybut-2-ynamido)tetrahydro-2H-pyran-4-carboxamide]
< 5.00	Cn1ncc2cc(N(C(=O)C#CCO)C3(C(=O)NCc4ccccc4)CCOCC3)ccc21 [A131, N-Benzyl-4-(4-hydroxy-N-(1-methyl-1H-indazol-5-yl)but-2-ynamido)tetrahydro-2H-pyran-4-carboxamide]
< 5.00	CC#CC(=O)N(c1ccc(Cl)c(Cl)c1)C(C(=O)NCc1ccccc1)c1ccccc1 (stereo not drawn) [A132, N-(2-(Benzylamino)-2-oxo-1-phenylethyl)-N-(3,4-dichlorophenyl)but-2-ynamide]
< 5.00	CC#CC(=O)N(c1cncc(Cl)c1)C(C(=O)NCc1ccccc1)c1ccccc1 (stereo not drawn) [A133, N-(2-(Benzylamino)-2-oxo-1-phenylethyl)-N-(5-chloropyridin-3-yl)but-2-ynamide]

Same assay, conditions: Hub-7 cells, 24 h incubation, read-out: Inhibition of Cell Proliferation EC50

pEC50	Compound
6.30 to 7.00	C#CC(=O)N(c1cccc(Cl)c1)[C@]1(C(=O)NCc2ccccc2)CC[C@@H](O)CC1 [A111, (1R,4R)—N-Benzyl-1-(N-(3-chlorophenyl)propiolamido)-4-hydroxycyclohexane-carboxamide]
5.00 to 5.70	COc1ccc(N(C(=O)C#CCO)C(C(=O)NCCc2ccccc2)c2cccs2)cc1Cl (stereo not drawn) [A118]
